Assay results: paper PMC10522932, “A broad inhibitor of acyl-acyl carrier protein synthetases” (Biochemistry and Biophysics Reports, 2023)

Experiments:
Test in all cases: urea-PAGE gel shift of acyl-ACP, densitometry
Format in all cases: biochemical
VhAasS [1] = target: T1, VhAasS (Vibrio harveyi, UniProt Q00IB3); conditions: read-out: % inhibition at 1 mM
T1 construct: gene aasS; His6-tagged, E. coli BL21[DE3], Ni-NTA purified; soluble enzyme
T1 sequence (Q00IB3 1-533): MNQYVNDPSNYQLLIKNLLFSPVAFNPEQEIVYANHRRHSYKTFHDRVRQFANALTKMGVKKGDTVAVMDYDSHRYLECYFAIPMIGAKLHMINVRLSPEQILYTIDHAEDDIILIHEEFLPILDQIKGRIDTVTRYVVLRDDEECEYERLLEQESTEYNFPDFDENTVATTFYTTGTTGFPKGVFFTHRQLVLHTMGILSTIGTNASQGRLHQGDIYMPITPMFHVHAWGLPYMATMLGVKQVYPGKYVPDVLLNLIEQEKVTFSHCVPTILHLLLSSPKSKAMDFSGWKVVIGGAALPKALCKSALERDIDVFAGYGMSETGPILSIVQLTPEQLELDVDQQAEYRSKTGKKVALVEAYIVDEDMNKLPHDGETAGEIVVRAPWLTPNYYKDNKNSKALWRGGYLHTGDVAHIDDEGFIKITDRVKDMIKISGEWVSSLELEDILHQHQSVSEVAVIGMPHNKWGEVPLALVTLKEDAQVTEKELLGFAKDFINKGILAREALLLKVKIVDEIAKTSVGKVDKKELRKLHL

AasC [2] = target: T2, AasC (Chlamydia trachomatis, UniProt O84781); conditions: read-out: % inhibition at 1 mM
T2 construct: gene aas; His6-tagged (pET16b or pET29a, synthetic gene), E. coli BL21[DE3], Ni-NTA purified
T2 sequence (O84781 1-537): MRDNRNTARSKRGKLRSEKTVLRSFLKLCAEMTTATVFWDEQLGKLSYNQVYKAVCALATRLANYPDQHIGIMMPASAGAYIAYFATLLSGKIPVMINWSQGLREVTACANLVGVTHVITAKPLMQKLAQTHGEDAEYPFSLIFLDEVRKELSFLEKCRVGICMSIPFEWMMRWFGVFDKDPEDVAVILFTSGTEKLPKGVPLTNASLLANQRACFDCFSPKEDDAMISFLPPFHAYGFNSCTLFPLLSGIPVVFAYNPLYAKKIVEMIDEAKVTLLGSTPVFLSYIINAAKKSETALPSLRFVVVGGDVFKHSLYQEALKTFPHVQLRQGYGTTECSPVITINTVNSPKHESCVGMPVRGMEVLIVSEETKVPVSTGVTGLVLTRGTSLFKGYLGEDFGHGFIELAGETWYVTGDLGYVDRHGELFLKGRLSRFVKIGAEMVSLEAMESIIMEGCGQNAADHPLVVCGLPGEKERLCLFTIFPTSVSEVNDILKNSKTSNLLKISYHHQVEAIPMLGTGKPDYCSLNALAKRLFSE

VhAasS [3] = target: T1, VhAasS; conditions: holo-EcACP 30 uM, decanoic acid 1 mM, ATP 10 mM, MgCl2 12.5 mM, TCEP 2.5 mM, enzyme 2 uM, pH 7.5, 37 C, 24 h
AasC [4] = target: T2, AasC; conditions: holo-EcACP 30 uM, decanoic acid 1 mM, ATP 10 mM, MgCl2 12.5 mM, TCEP 2.5 mM, enzyme 50 uM, pH 7.5, 37 C, 24 h

| Compound | inhibition at 1000 µM (VhAasS [1]) [%] | inhibition at 1000 µM (AasC [2]) [%] | urea-PAGE gel shift of acyl-ACP, densitometry (VhAasS [3]) | urea-PAGE gel shift of acyl-ACP, densitometry (AasC [4]) |
| --- | --- | --- | --- | --- |
| CCCCCCCCCC(=O)NS(=O)(=O)OC[C@H]1O[C@@H](n2cnc3c(N)ncnc32)[C@H](O)[C@@H]1O [C10-AMS] | 100 | 100 | – | – |
| CCCCCCCCCC(=O)O [decanoic acid] | – | – | All AasS enzymes tested were able to load C10 onto EcACP | All AasS enzymes tested were able to load C10 onto EcACP |
